Among the data in PubChem BioAssay (NCI) are TGI values, retold here.

Test systems include COLO 205 colon; HCT-15 colon; HOP-62 NSCLC; HOP-92 NSCLC; KM12 colon; M14 melanoma; MALME-3M melanoma; MDA-MB-435; NCI/ADR-RES ovarian; SF-268 CNS; SK-MEL-5 melanoma; SNB-75 CNS; UACC-62 melanoma; UO-31 renal; UACC-257 melanoma.
Common to all, as to assay: NCI-60 cell line screen, 48 h

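How tested: cells in 96-well plates exposed to compound for 48 hours at five concentrations. TGI: total growth inhibition.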 Some results are limits rather than exact numbers.

Consider `C=C(Br)CNC(=O)Nc1ccc(Cl)c(Cl)c1`, for which the TGI with COLO 205 colon is 30.6 µM; in the experiment with HCT-15 colon, greater than 100 µM; with HOP-62 NSCLC, 48.1 µM; in the experiment with HOP-92 NSCLC, 41.2 µM; with KM12 colon, 34.4 µM; in the experiment with M14 melanoma, 77.5 µM. Also, the TGI came out at 48.6 µM in the experiment on MALME-3M melanoma; 53.2 µM with MDA-MB-435; 43.6 µM in the experiment on NCI/ADR-RES ovarian; 91.9 µM with SF-268 CNS; 27.1 µM with SK-MEL-5 melanoma; 51.5 µM with SNB-75 CNS. Moreover, the TGI with UACC-62 melanoma is 49 µM; with UO-31 renal it was 24.8 µM.

In the case of `CCOC(=O)c1c(C)nc2c1c(CN(C)C)c(O)c1[nH]c(C)c(C)nc12`, the TGI with COLO 205 colon is 40.4 µM; in the experiment with HCT-15 colon, greater than 100 µM; in the experiment with HOP-62 NSCLC, 51 µM; in the experiment with HOP-92 NSCLC, 96.6 µM; in the experiment with KM12 colon, greater than 100 µM; in the experiment on M14 melanoma it was greater than 100 µM. For the same compound, the TGI was determined as 53.4 µM in the experiment on MALME-3M melanoma; 99.7 µM with MDA-MB-435; 76.6 µM in the experiment on NCI/ADR-RES ovarian; 93.1 µM in the experiment on SF-268 CNS; 29.1 µM in the experiment with SK-MEL-5 melanoma; 60.7 µM in the experiment on SNB-75 CNS. For the same compound, the TGI is 61.3 µM in the experiment with UACC-257 melanoma, 30.3 µM in the experiment on UACC-62 melanoma and greater than 100 µM in the experiment with UO-31 renal.

As for `CC1=NN(C(=O)c2ccncc2)C(=O)C1`, the TGI with COLO 205 colon, with HCT-15 colon, with HOP-62 NSCLC, with HOP-92 NSCLC, in the experiment on KM12 colon and with M14 melanoma was greater than 100 µM each time. Also, the TGI with MALME-3M melanoma, in the experiment with MDA-MB-435, in the experiment on NCI/ADR-RES ovarian, in the experiment with SF-268 CNS, with SK-MEL-5 melanoma and in the experiment with SNB-75 CNS was greater than 100 µM in each case. The TGI with UACC-257 melanoma, in the experiment on UACC-62 melanoma and in the experiment with UO-31 renal was greater than 100 µM each time.

On to `COc1ccc(C2SCC(=O)N2c2ccc(-c3ccc(-n4c(-c5ccccc5)nc5ccccc5c4=O)cc3)cc2)cc1OC` (stereo not drawn), for which the TGI was greater than 100 µM with COLO 205 colon; greater than 100 µM in the experiment with HCT-15 colon; 37.6 µM in the experiment on HOP-62 NSCLC; greater than 100 µM in the experiment with HOP-92 NSCLC; 28.3 µM in the experiment on KM12 colon; greater than 100 µM with M14 melanoma. The TGI with MALME-3M melanoma, in the experiment on MDA-MB-435, in the experiment on NCI/ADR-RES ovarian, with SF-268 CNS, in the experiment on SNB-75 CNS and with UACC-257 melanoma was greater than 100 µM each time. The TGI in the experiment on UACC-62 melanoma and in the experiment on UO-31 renal was greater than 100 µM each time.

Turning to `CC(=O)Nc1ccc(C(O)/C(=N/N)c2nc3ccc(Cl)cc3[nH]c2=O)cc1` (stereo not drawn), the TGI in the experiment with COLO 205 colon, with HCT-15 colon, with HOP-62 NSCLC, in the experiment with HOP-92 NSCLC, in the experiment with KM12 colon and in the experiment on M14 melanoma was greater than 100 µM throughout. For the same compound, the TGI with MALME-3M melanoma, in the experiment on MDA-MB-435, in the experiment on NCI/ADR-RES ovarian, with SF-268 CNS, with SK-MEL-5 melanoma and with SNB-75 CNS was greater than 100 µM in each case. The TGI with UACC-257 melanoma, in the experiment on UACC-62 melanoma and in the experiment on UO-31 renal was greater than 100 µM throughout.

`Cn1c(=O)c2[nH]c(CCNC(=O)c3ccccc3)nc2n(C)c1=O`: the TGI with HCT-15 colon, in the experiment on HOP-62 NSCLC, with HOP-92 NSCLC, in the experiment on KM12 colon, with M14 melanoma and in the experiment with MALME-3M melanoma was greater than 100 µM each time. Also, the TGI in the experiment with MDA-MB-435, in the experiment with NCI/ADR-RES ovarian, with SF-268 CNS, in the experiment with SK-MEL-5 melanoma, in the experiment with SNB-75 CNS and in the experiment on UACC-257 melanoma was greater than 100 µM each time. The TGI in the experiment on UACC-62 melanoma and with UO-31 renal was greater than 100 µM each time.

In the case of `NC(N)=NCCCC(NC(=O)c1cccc2c(=O)c3ccccc3[nH]c12)C(=O)O` (stereo not drawn), the TGI in the experiment with COLO 205 colon, in the experiment with HCT-15 colon, with HOP-62 NSCLC, in the experiment on HOP-92 NSCLC, in the experiment on KM12 colon and in the experiment on M14 melanoma was greater than 100 µM throughout. The TGI in the experiment with MALME-3M melanoma, in the experiment with MDA-MB-435, in the experiment with NCI/ADR-RES ovarian, with SF-268 CNS, in the experiment with SK-MEL-5 melanoma and with SNB-75 CNS was greater than 100 µM throughout. For the same compound, the TGI in the experiment on UACC-62 melanoma and with UO-31 renal was greater than 100 µM each time.

On to `CC1(C)C=Cc2c(cc(O)c3c(=O)c4cc(Cl)ccc4[nH]c23)O1`, for which the TGI in the experiment with COLO 205 colon is greater than 10 µM; in the experiment with HCT-15 colon it was greater than 10 µM; with HOP-62 NSCLC it was greater than 10 µM; with HOP-92 NSCLC, 7.79 µM; in the experiment on KM12 colon it was 8.75 µM; with MALME-3M melanoma it was 7.5 µM. Further, the TGI in the experiment with MDA-MB-435 was greater than 10 µM; with NCI/ADR-RES ovarian, 5.97 µM; in the experiment on SF-268 CNS, greater than 10 µM; in the experiment with SK-MEL-5 melanoma, 6.33 µM; with SNB-75 CNS, greater than 10 µM; in the experiment with UACC-257 melanoma, greater than 10 µM. In addition, the TGI with UACC-62 melanoma is greater than 10 µM; in the experiment with UO-31 renal, 5.91 µM.

Turning to `O=[N+]([O-])c1cccc2nnccc12`, the TGI in the experiment on COLO 205 colon was 34.1 µM; with HCT-15 colon, 28.3 µM; with HOP-92 NSCLC it was 71.4 µM; in the experiment on KM12 colon, greater than 100 µM; in the experiment with M14 melanoma, greater than 100 µM; with MALME-3M melanoma, 26.9 µM. Further, the TGI in the experiment with MDA-MB-435 is 32.5 µM; in the experiment with NCI/ADR-RES ovarian, greater than 100 µM; in the experiment with SF-268 CNS, greater than 100 µM; with SK-MEL-5 melanoma it was 27 µM; in the experiment on SNB-75 CNS, greater than 100 µM; with UACC-257 melanoma, 39.9 µM. Moreover, the TGI was determined as 34.2 µM in the experiment on UACC-62 melanoma and 95.4 µM in the experiment on UO-31 renal.

As for `CC(=O)c1ccc2c(c1)CC1(C2)Cc2cc3c(cc2C1=O)CCC3` (stereo not drawn), the TGI turned out to be 31.2 µM in the experiment on COLO 205 colon; 95.9 µM with HCT-15 colon; 81.3 µM in the experiment with HOP-62 NSCLC; 65.5 µM in the experiment with HOP-92 NSCLC; 32.4 µM with KM12 colon; 28.9 µM in the experiment on M14 melanoma. Also, the TGI in the experiment on MALME-3M melanoma was determined as 39.3 µM; with MDA-MB-435 it was 32.4 µM; in the experiment on NCI/ADR-RES ovarian, 39.4 µM; in the experiment on SF-268 CNS it was 88 µM; with SK-MEL-5 melanoma, 22.5 µM; with SNB-75 CNS it was 41.2 µM. The TGI was found to be 30.2 µM in the experiment with UACC-257 melanoma and 63.5 µM with UO-31 renal.
